Columns and labels:
[1] = in vivo; cited from earlier work
[2] = tested on: primary mouse hepatocytes
[3] = tested on: primary mouse hepatocytes; test: Gene expression (Affymetrix Mouse Genome 430 2.0) in primary mouse hepatocytes, true vs false GTX, 24 h and 48 h

Cl.ClCc1ccccn1 [2-CP, 2-(Chloromethyl)pyridine.HCl]
GTX in vivo [1]: −
Gene expression data AF204959 (Cyp3a25 /// LOC622249) [2]: −0.5019
Gene expression AA561726 average [3]: −0.4297
Gene expression AF000969 average [3]: 0.2944
Gene expression AF022072 average [3]: 0.04067
Gene expression AF033112 average [3]: −0.6651
Gene expression AF055573 average [3]: 0.3686
Gene expression AF069954 average [3]: 0.199
Gene expression AF297615 average [3]: −0.5906
Gene expression AF335325 average [3]: −0.05667
Gene expression AI594683 average [3]: −0.2197
Gene expression AI747296 average [3]: −0.2637
Gene expression AK005731 average [3]: −0.6019
Gene expression AK007854 average [3]: 0.5513
Gene expression AK010447 average [3]: −0.05023
Gene expression AK010738 average [3]: 0.0059
Gene expression AK014608 average [3]: −0.01263
Gene expression AK017734 average [3]: 0.1489
Gene expression AK018383 average [3]: −0.2158
Gene expression AK019979 average [3]: −0.4249
Gene expression AV095209 average [3]: −0.03467
Gene expression AV141095 average [3]: −0.4102
Gene expression AV173869 average [3]: 0.3109
Gene expression AV216768 average [3]: −0.4179
Gene expression AV219418 average [3]: 0.8281
Gene expression AV221299 average [3]: 0.4545
Gene expression AV246296 average [3]: −0.3558
Gene expression AV251625 average [3]: 0.06723
Gene expression AV254764 average [3]: 0.396
Gene expression AV327248 average [3]: −0.2215
Gene expression BB009155 average [3]: −0.348
Gene expression BB027848 average [3]: 0.2054
Gene expression BB043558 average [3]: −0.2293
Gene expression BB046347 average [3]: 0.187
Gene expression BB140436 average [3]: 0.2823
Gene expression BB204486 average [3]: −0.3875
Gene expression BB223872 average [3]: 0.1743
Gene expression BB246912 average [3]: 0.5739
Gene expression BB275142 average [3]: 0.091
Gene expression BB458460 average [3]: −0.1792
Gene expression BB463610 average [3]: 0.0113
Gene expression BB730977 average [3]: −0.7313
Gene expression BB743970 average [3]: −0.1686
Gene expression BB770528 average [3]: −0.4836
Gene expression BB781615 average [3]: 0.007033
Gene expression BC003284 average [3]: −0.2395
Gene expression BC004827 average [3]: −0.2477
Gene expression BC005552 average [3]: 0.1255
Gene expression BC006713 average [3]: 0.2405
Gene expression BC010318 average [3]: 0.1986
Gene expression BC012247 average [3]: 0.5221
Gene expression BC012955 average [3]: 0.2863
Gene expression BC013893 average [3]: 0.4871
Gene expression BC017615 average [3]: −0.3193
Gene expression BC019379 average [3]: −0.1926
Gene expression BC019882 average [3]: 0.8148
Gene expression BC021352 average [3]: −0.7192
Gene expression BC022148 average [3]: 0.1919
Gene expression BC025169 average [3]: 0.9283
Gene expression BC026131 average [3]: 0.4079
Gene expression BC027026 average [3]: −0.2177
Gene expression BC027121 average [3]: −0.6553
Gene expression BC027185 average [3]: 0.06273
Gene expression BE956581 average [3]: 0.0444
Gene expression BF719766 average [3]: −0.1259
Gene expression BG065754 average [3]: −0.2817
Gene expression BG066491 average [3]: −0.3489
Gene expression BG076151 average [3]: −0.0769
Gene expression BG076333 average [3]: 0.4759
Gene expression BG797099 average [3]: 0.004233
Gene expression BG967046 average [3]: −0.1557
Gene expression BI651416 average [3]: −0.08753
Gene expression BI966443 average [3]: −0.01713
Gene expression BM198879 average [3]: −0.1026
Gene expression BM200015 average [3]: −0.3607
Gene expression BM230508 average [3]: −0.2554
Gene expression BM936480 average [3]: −0.07417
Gene expression BQ174991 average [3]: 0.1864
Gene expression L21027 average [3]: −0.5404
Gene expression NM_007556 average [3]: 0.1685
Gene expression NM_007980 average [3]: −0.2848
Gene expression NM_007987 average [3]: −0.3447
Gene expression NM_008522 average [3]: 0.0213
Gene expression NM_008935 average [3]: −0.2124
Gene expression NM_009897 average [3]: −0.06103
Gene expression NM_011075 average [3]: −0.5782
Gene expression NM_011176 average [3]: −0.0046
Gene expression NM_011316 average [3]: 0.5829
Gene expression NM_012006 average [3]: −0.1277
Gene expression NM_013642 average [3]: 0.3967
Gene expression NM_013738 average [3]: −0.373
Gene expression NM_013929 average [3]: −0.5291
Gene expression NM_018881 average [3]: −0.0599
Gene expression NM_019738 average [3]: −0.5143
Gene expression NM_030697 average [3]: −0.0882
Gene expression NM_053122 average [3]: 0.1396
Gene expression NM_134147 average [3]: 0.6449
Gene expression NM_134188 average [3]: −0.1373
Gene expression X62701 average [3]: −0.146
Gene expression data AF000969 (Cadps2) [3]: −0.1003
Gene expression data AF022072 (Grb10) [3]: 0.621
Gene expression data AF065917 (Lif) [3]: 0.01213
Gene expression data AF297615 (Ggta1) [3]: 0.06963
Gene expression data AI594683 (Dmn) [3]: −0.3157
Gene expression data AI596632 (Ptprg /// LOC632664) [3]: 0.2251
Gene expression data AI987929 (Ndrg1) [3]: −0.1004
Gene expression data AK004419 (Fbxl17) [3]: −0.1203
Gene expression data AK005731 (1700007K13Rik) [3]: 0.1965
Gene expression data AK007766 (1810044A24Rik) [3]: −0.1235
Gene expression data AK007854 (1810053B23Rik) [3]: −0.4492
Gene expression data AK009736 (Gpr137b /// LOC664862 /// LOC673335) [3]: 0.9644
Gene expression data AK010447 (Smyd3) [3]: 0.06097
Gene expression data AK014608 (4632434l11Rik) [3]: 0.5726
Gene expression data AK019979 (2610528E23Rik) [3]: 0.3731
Gene expression data AV095209 (Mthfd1l) [3]: 0.5754
Gene expression data AV141095 (1110033M05Rik) [3]: 0.1817
Gene expression data AV173571 (1700106N22Rik) [3]: −0.01367
Gene expression data AV219418 (Ldhb) [3]: −0.7968
Gene expression data AV223474 (Zdhhc14) [3]: −0.4094
Gene expression data AV298304 (Homez) [3]: 0.1881
Gene expression data AV327248 (Zfp365 /// LOC674611) [3]: 0.1477
Gene expression data AV377066 (9130221J18Rik) [3]: −0.6354
Gene expression data AW240761 (Tbc1d5) [3]: 0.02803
Gene expression data AW543460 (Pard3) [3]: 0.2263
Gene expression data AW543723 [3]: 0.1487
Gene expression data AW986246 (Maoa) [3]: 1.21
Gene expression data BB027848 (4732466D17Rik) [3]: −0.5716
Gene expression data BB043558 (9230114K14Rik) [3]: 0.4946
Gene expression data BB275142 (AW456874) [3]: −0.1954
Gene expression data BB308836 (Ppm1l) [3]: −0.3692
Gene expression data BB318221 (Zdhhc14) [3]: −0.2464
Gene expression data BB463610 (4632434l11Rik) [3]: 0.3848
Gene expression data BB526605 (Mipol1) [3]: −0.2134
Gene expression data BB770528 (Rai2) [3]: −0.3271
Gene expression data BB821363 (Scfd2) [3]: −0.1883
Gene expression data BC004827 (Psat1) [3]: 0.3654
Gene expression data BC008626 (Icam1) [3]: −0.242
Gene expression data BC010462 (BC010462) [3]: −0.5895
Gene expression data BC012247 (Dcxr) [3]: −0.3261
Gene expression data BC012260 (Psmf1) [3]: −0.824
Gene expression data BC015270 (Hist2h3c2) [3]: −0.231
Gene expression data BC016073 (Cdkal1) [3]: 0.03017
Gene expression data BC016265 (Ube2e2) [3]: 0.0177
Gene expression data BC019882 (Acaa1b) [3]: −0.0399
Gene expression data BC025501 (Aaas) [3]: 0.0663
Gene expression data BC025837 (Sbk1) [3]: −0.5042
Gene expression data BC025915 (Cova1) [3]: 0.05827
Gene expression data BC026422 (Tgm1) [3]: −0.3825
Gene expression data BF719766 (Thyn1) [3]: 0.0395
Gene expression data BG065754 (Ccng1) [3]: 0.3287
Gene expression data BG066903 (Kif16b) [3]: 0.3368
Gene expression data BG069873 (Gnb1l) [3]: −0.1027
Gene expression data BG070887 (Gtdc1) [3]: −0.06773
Gene expression data BG076151 (Ppm1d) [3]: 0.1213
Gene expression data BG261907 (Large) [3]: −0.1177
Gene expression data BI651416 (Cdc42bpg) [3]: 0.05237
Gene expression data BI660702 (Ell3) [3]: 0.08167
Gene expression data BM198879 (Ercc5) [3]: 0.2935
Gene expression data BM230508 (A030007D23Rik) [3]: 0.3615
Gene expression data NM_007987 (Fas) [3]: 0.2313
Gene expression data NM_008522 (Ltf) [3]: −0.3581
Gene expression data NM_008576 (Abcc1) [3]: 1.199
Gene expression data NM_011176 (St14) [3]: −0.05393
Gene expression data NM_011316 (Saa4) [3]: −0.04463
Gene expression data NM_012006 (Acot1) [3]: 0.6012
Gene expression data NM_013866 (Zfp385) [3]: −0.1346
Gene expression data NM_018770 (Igsf4a) [3]: 0.14
Gene expression data NM_021451 (Pmaip1) [3]: 0.02357
Gene expression data NM_025770 (Atg10) [3]: 0.3445
Gene expression data NM_028803 (Gbe1) [3]: 0.5242
Gene expression data NM_030697 (Ankrd47) [3]: −0.5785
Gene expression data NM_053168 (Trim11) [3]: −0.06783
Gene expression data NM_134188 (Acot2) [3]: 0.501
Gene expression data Y15910 (Diap2) [3]: 0.06693
